Data as given in patent US4322370A, “Polycyclic compounds” (Beecham Group Limited, priority 1975, dated 1982).

Key:
[1] = tested on: reserpine-induced hypothermia; test: Reserpine Prevention test (prevention of reserpine-induced hypothermia in mice); type: in vivo; details: Mus musculus, read-out: Approximate Dose required mg/kg (dose at which compounds are active on the Reserpine Prevention Test in Mice)
Excerpt: The results given in Table 1 were obtained for compounds of the formula (XIII): [drawing 22]

in vivo = details: mouse, po
[2] = Oral toxicity in mice (deaths, LD50); details: for Min Dose (mg/kg) at which deaths occurred: mice; for LD50: mouse, in vivo, po
[3] = Reduction in food intake in hungry rats after oral administration (anorexic activity); type: in vivo; details: 10 mg/kg
Method: The useful anorexic activity of 4-(4-chlorophenyl)-2, 2-dimethyl-7-(2-dimethylaminoethoxy)-1-methylidene tetralin and 4-(4-chlorophenyl-1,2,2,-trimethyl-7-(2-dimethylaminoethoxy) tetralin were determined by the oral administration to hungry rats of the compound and measuring the reduction in their food intake. The results are as follows: […]

Structure (SMILES): CN(C)CCOc1ccc2c(c1)C(O)C(C)(C)CC2c1ccc(Cl)cc1 (centres unmarked) [CH2 CH3 CHOH Cl H, 4-(4-Chlorophenyl)-1-hydroxy-2,2-dimethyl-7-(2-dimethylaminoethoxy)tetralin]
- minimal effective dose [1]: 0.1 mg/kg
- LD50 (in vivo): 11 mg/kg
- Min Dose (mg/kg) at which deaths occurred [2]: 3 mg/kg

Structure (SMILES): CN(C)CCOc1ccc2c(c1)C(=O)C(C)(C)CC2c1ccc(Cl)cc1 (centres unmarked) [CH2 CH3 CO Cl H, 4-(4-Chlorophenyl)-2,2-dimethyl-7-(2-dimethylaminoethoxy)-1-tetralone]
- minimal effective dose [1]: 0.03 mg/kg
- Min Dose (mg/kg) at which deaths occurred [2]: 10 mg/kg
- LD50 [2]: 55 mg/kg

Structure (SMILES): CN(C)CCOc1ccc2c(c1)C(=O)C(C)(C)CC2c1cccc(C(F)(F)F)c1 (centres unmarked) [CH2 CH3 CO H CF3, 4-(3-Trifluoromethylphenyl)-2,2-dimethyl-7-(2-dimethylaminoethoxy)-1-tetralone]
- minimal effective dose [1]: 3 mg/kg
- Min Dose (mg/kg) at which deaths occurred [2]: > 100 mg/kg
- LD50 [2]: > 100 mg/kg

Structure (SMILES): CNCC(O)COc1ccc2c(c1)C(=O)C(C)(C)CC2c1ccc(Cl)c(Cl)c1 (centres unmarked) [H CO Cl Cl, 4-(3,4-Dichlorophenyl)-7-(2-hydroxy-3-methylaminopropoxy)-2,2-dimethyl-1-tetralone]
- minimal effective dose [1]: 1 mg/kg
- Min Dose (mg/kg) at which deaths occurred [2]: > 100 mg/kg
- LD50 [2]: 100 mg/kg

Structure (SMILES): CN(C)CCOc1ccc2c(c1)C(Cl)C(C)(C)CC2c1ccc(Cl)cc1 (centres unmarked) [CH2 CH3 CHCl Cl H, 1-Chloro-4-(4-chlorophenyl)-2,2-dimethyl-7-(2-dimethylaminoethoxy)tetralin]
- minimal effective dose [1]: 0.1 mg/kg
- Min Dose (mg/kg) at which deaths occurred [2]: 30 mg/kg
- LD50 [2]: 33 mg/kg

Structure (SMILES): CN(C)CCOc1ccc2c(c1)C(=O)C(C)(C)CC2c1ccc(Cl)c(Cl)c1 (centres unmarked) [CH2 CH3 CO Cl Cl, 4-(3,4-Dichlorophenyl)-2,2-dimethyl-7-(2-dimethylaminoethoxy)-1-tetralone]
- minimal effective dose [1]: 1 mg/kg
- Min Dose (mg/kg) at which deaths occurred [2]: 10 mg/kg
- LD50 [2]: 10 to 30 mg/kg

Structure (SMILES): C=C1c2cc(OCCN(C)C)ccc2C(c2ccc(Cl)cc2)CC1(C)C (centres unmarked) [4-(4-Chlorophenyl)-2,2-dimethyl-7-(2-dimethylaminoethoxy)-1-methylidene tetralin]
- reduction in food intake [3]: 51%

Structure (SMILES): CC1c2cc(OCCN(C)C)ccc2C(c2ccc(Cl)cc2)CC1(C)C (centres unmarked) [CH2 CH3 CHCH3 Cl H, 4-(4-Chlorophenyl)-1,2,2-trimethyl-7-(2-dimethylaminoethoxy)tetralin]
- minimal effective dose [1]: 3 mg/kg
- reduction in food intake [3]: 35%
- Min Dose (mg/kg) at which deaths occurred [2]: > 100 mg/kg
- LD50 [2]: > 100 mg/kg
